Assay results: patent US7173004B2, “Macrocyclic isoquinoline peptide inhibitors of hepatitis C virus” (Bristol-Myers Squibb Company, priority 2003, dated 2007)
Entries after “also recorded” stand apart in the source; their conditions may differ. Like-named read-outs stand apart in the source and are kept apart here.

Legend:
[1] = system: HCV replicon (HCV 1b-377-neo replicon cells, Huh7); experiment: HCV replicon cell-based FRET assay; details: Hepatitis C virus, Huh-7
How it was run: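 Huh7 cells carrying a neo-selectable genotype 1b HCV replicon (~3,000 RNA copies/cell) were seeded at 1.5×10^4 cells/well and treated 4 days at 37 °C (0.5% DMSO final). CC50 was read by alamar Blue (4 h, ex 530/em 580 nm). Lysates with 10 μM EDANS/DABCYL NS3 protease FRET peptide were read kinetically (ex 340/em 490 nm, 25 °C, ~15 min) for % inhibition.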

HCV replicon = experiment: Two-drug combination studies in HCV replicon system, combination index (Chou); assay type: cell-based; details: for EC50: monotherapy, NS3 protease inhibitor = compound 28, read-out: NS3 protease inhibitor EC50
Source text: Since clinical drug resistance often develops in viral infections following single-agent therapies, there is a need to assess the additive, antagonistic, or synergistic properties of combination therapies. We used the HCV replicon system, as described above, to assess the potential use of our NS3 protease macrocyclic inhibitor in combination therapies with Intron A and inhibitors targeting other HCV proteins. Three HCV antivirals, Intron A (recombinant Interferon alfa-2b) an HCV NS5A inhibitor having the following structure:
In addition, compound 28 was also tested in 3-drug combinations with the NS5A and NS5B inhibitors.
For the experiments shown in Tables 8 and 9, inhibitors were tested at eleven concentrations each. 200× stock solutions of each inhibitor concentration were prepared by 2- or 3-fold dilution in DMSO prior to addition to cells/media. The drugs were tested as monotherapies and in combination with the NS3 protease inhibitor at various concentration ratios. Cells were exposed to compounds for 4 days and the amount of HCV inhibition was then determined using the FRET assay. The potential cytotoxicities of these combined agents were also analyzed in parallel by Alamar Blue staining. […] The degree of antagonism, additivity, or synergy was determined over a range of drug concentrations, and combination response curves were fit to assess the antiviral effects of the drug treatment combinations. The concentration ratios were analyzed using the method of Chou (Chou, Ting-Chao, and Rideout (Editors), (1991) Synergism and Antagonism in Chemotherapy, P. 61–101, Academic Press, New York). Tables 8 and 9 report the estimated EC50 values for the compounds tested, as well as the combination indices (CI). All estimates were computed using SAS Proc NLIN, and a two-parameter logistic. All combination indices were tested for departure from additivity using isobologram methods. Asymptotic confidence intervals were also calculated for each of the combination indices. These intervals are used to test for departure from additivity by comparing the bounds to one—a lower bound of the interval greater than 1 indicates antagonism, an upper bound of less than 1 indicates synergism, and a value of 1 contained in the interval indicates additivity.

[2] = 75, 90 and 95% effective doses, two experiments

SMILES	EC50 [1] [nM]	other results
COc1ccc2c(OC3CC4C(=O)NC5(C(=O)NS(=O)(=O)C6CC6)CC5C=CCOCCCC(NC(=O)OC(C)(C)C)C(=O)N4C3)nccc2c1 (centres unmarked) [Compound 28, [4-Cyclopropanesulfonylaminocarbonyl-18-(6-methoxy-isoquinolin-1-yloxy)-2,15-dioxo-10-oxa-3,16-diaza-tricyclo[14.3.0.0^4,6]nonadec-7-en-14-yl]-carbamic acid tert-butyl ester]	< 50	combination effect with Intron A (Interferon alfa-2b) (HCV replicon; [2]): either synergistic or additivity effects; also recorded: no drug antagonism; combination effect with the HCV NS5A inhibitor (HCV replicon; [2]): Synergy or additivity; also recorded: no drug antagonism; EC50 (HCV replicon; Hepatitis C virus, Table 9 (combinations with an NS5A inhibitor)): 9 nM; EC50 (HCV replicon; Table 9 (combinations with an NS5A inhibitor)): 11 nM; EC50 (HCV replicon; Table 8 (combinations with Interferon alfa-2b)): 10 nM
CCC1(S(=O)(=O)NC(=O)C23CC2C=CCCCS(=O)(=O)CC(NC(=O)OC(C)(C)C)C(=O)N2CC(Oc4nccc5cc(OC)ccc45)CC2C(=O)N3)CC1 (centres unmarked) [Compound 48]	50 to 500	
CCC1(S(=O)(=O)NC(=O)C23CC2C=CCOCCCC(NC(=O)NC2CCCC2)C(=O)N2CC(Oc4nccc5cc(OC)ccc45)CC2C(=O)N3)CC1 (centres unmarked) [Compound 38]	< 50	
CC(C)S(=O)(=O)NC(=O)[C@@]12C[C@H]1/C=C\CCCCC[C@H](NC(=O)OC(C)(C)C)C(=O)N1C[C@H](Oc3nccc4ccccc34)C[C@H]1C(=O)N2 [Compound 3, [18-(Isoquinolin-1-yloxy)-2,15-dioxo-4-(propane-2-sulfonylaminocarbonyl)-3,16-diaza-tricyclo-[14.3.0.0^4,6]nonadec-7-en-14-yl]-carbamic acid tert-butyl ester]	50 to 500	
CCCNC(=O)NC1CCCCCC=CC2CC2(C(=O)NS(=O)(=O)C2CC2)NC(=O)C2CC(Oc3nccc4ccccc34)CN2C1=O (centres unmarked) [Compound 23]	< 50	
COc1ccc2c(OC3C[C@H]4C(=O)N[C@]5(C(=O)NS(=O)(=O)C6CC6)C[C@H]5/C=C\CCCSC[C@H](NC(=O)OC(C)(C)C)C(=O)N4C3)nccc2c1 (some centres unmarked) [Compound 18B, [4-Cyclopropanesulfonylaminocarbonyl-18-(6-methoxy-isoquinolin-1-yloxy)-2,15-dioxo-12-thia-3,16-diaza-tricyclo[14.3.0.0^4,6]nonadec-7-en-14-yl]-carbamic acid tert-butyl ester]	< 50	
COc1ccc2c(OC3CC4C(=O)NC5(C(=O)O)CC5C=CCCCSCC(NC(=O)OC(C)(C)C)C(=O)N4C3)nccc2c1 (centres unmarked) [Compound 18A, 14-tert-Butoxycarbonylamino-18-(6-methoxy-isoquinolin-1-yloxy)-2,15-dioxo-12-thia-3,16-diaza-tricyclo[14.3.0.0^4,6]nonadec-7-ene-4-carboxylic acid]	500 to 5000	
CC(C)(C)OC(=O)NC1CSCCCC=CC2CC2(C(=O)NS(=O)(=O)C2CC2)NC(=O)C2CC(Oc3nccc4c(Cl)cccc34)CN2C1=O (centres unmarked) [Compound 78]	< 50	
CS(=O)(=O)NC1CCCCCC=CC2CC2(C(=O)NS(=O)(=O)C2CC2)NC(=O)C2CC(Oc3nccc4ccccc34)CN2C1=O (centres unmarked) [Compound 25]	500 to 5000	
O=C(N[C@H]1CCCCC/C=C\[C@@H]2C[C@@]2(C(=O)NS(=O)(=O)C2CC2)NC(=O)[C@@H]2C[C@@H](Oc3nccc4ccccc34)CN2C1=O)OC1CCOCC1 [Compound 14, [4-Cyclopropanesulfonylaminocarbonyl-18-(isoquinolin-1-yloxy)-2,15-dioxo-3,16-diaza-tricyclo[14.3.0.0^4,6]nonadec-7-en-14-yl]-carbamic acid tetrahydro-pyran-4-yl ester]	< 50	
CC(C)(C)OC(=O)N[C@H]1CCCCC/C=C\[C@@H]2C[C@@]2(C(=O)NS(C)(=O)=O)NC(=O)[C@@H]2C[C@@H](Oc3nccc4ccccc34)CN2C1=O [Compound 2, [18-(Isoquinolin-1-yloxy)-4-methanesulfonylaminocarbonyl-2,15-dioxo-3,16-diaza-tricyclo[14.3.0.0^4,6]nonadec-7-en-14-yl]-carbamic acid tert-butyl ester]	50 to 500	EC50 ([1]; read-out: EC50 value in the replicon assay): 146 nM
CCCC1(S(=O)(=O)NC(=O)[C@@]23C[C@H]2CCCCCCC[C@H](NC(=O)OC(C)(C)C)C(=O)N2C[C@H](Oc4nccc5ccccc45)C[C@H]2C(=O)N3)CC1 [Compound 7, [18-(Isoquinolin-1-yloxy)-2,15-dioxo-4-(1-propyl-cyclopropanesulfonylaminocarbonyl)-3,16-diaza-tricyclo[14.3.0.0^4,6]nonadec-14-yl]-carbamic acid tert-butyl ester]	< 50	
COc1ccc2c(OC3CC4C(=O)NC5(C(=O)NS(=O)(=O)C6(C)CC6)CC5C=CCCCOC(C)C(NC(=O)OC(C)C)C(=O)N4C3)nccc2c1 (centres unmarked) [Compound 68]	50 to 500	
CC(C)(C)OC(=O)N[C@H]1CCCCCCC[C@@H]2C[C@@]2(C(=O)NS(=O)(=O)C2CC2)NC(=O)[C@@H]2C[C@@H](Oc3nccc4ccccc34)CN2C1=O [Compound 10, [4-Cyclopropanesulfonylaminocarbonyl-18-(isoquinolin-1-yloxy)-2,15-dioxo-3,16-diaza-tricyclo[14.3.0.0^4,6]nonadec-14-yl]-carbamic acid tert-butyl ester]	< 50	
CC(=O)NC1CCCCCC=CC2CC2(C(=O)NS(=O)(=O)C2CC2)NC(=O)C2CC(Oc3nccc4ccccc34)CN2C1=O (centres unmarked) [Compound 26]	50 to 500	
COc1ccc2c(OC3CC4C(=O)NC5(C(=O)NS(=O)(=O)C6CC6)CC5C=CCCCCCC(NC(=O)N5CCCC5)C(=O)N4C3)nccc2c1 (centres unmarked) [Compound 60]	< 50	
CC(C)(C)OC(=O)N[C@H]1CCCCC/C=C\[C@@H]2C[C@@]2(C(=O)NS(=O)(=O)C2CCC2)NC(=O)[C@@H]2C[C@@H](Oc3nccc4ccccc34)CN2C1=O [Compound 9, [4-Cyclobutanesulfonylaminocarbonyl-18-(isoquinolin-1-yloxy)-2,15-dioxo-3,16-diaza-tricyclo[14.3.0.0^4,6]nonadec-7-en-14-yl]-carbamic acid tert-butyl ester]	< 50	
CCC1(S(=O)(=O)NC(=O)C23CC2C=CCCCOC(C)C(NC(=O)OC(C)C)C(=O)N2CC(Oc4nccc5cc(OC)ccc45)CC2C(=O)N3)CC1 (centres unmarked) [Compound 72]	50 to 500	
COc1ccc2c(OC3CC4C(=O)NC5(C(=O)NS(=O)(=O)C6CC6)CC5C=CCCCOC(C)C(NC(=O)OCC(C)(C)C)C(=O)N4C3)nccc2c1 (centres unmarked) [Compound 63]	50 to 500	
COc1ccc2c(O[C@@H]3C[C@H]4C(=O)N[C@]5(C(=O)O)C[C@H]5/C=C\CCCO[C@H](C)[C@H](NC(=O)OC(C)(C)C)C(=O)N4C3)nccc2c1 [Compound 61]	5000 to 50000	
